Measured values: patent publication US10435399B2, “HDAC6 inhibitory heterocyclic compound” (TAKEDA PHARMACEUTICAL COMPANY LIMITED, priority 2017, dated 2019)

Each molecule was assayed against T1, HDAC6 enzyme (Homo sapiens, UniProt Q9UBN7) (assay: HDAC6 enzyme inhibitory activity (HDAC-Glo I/II Assay kit)). Conditions: 10 μM; wells without enzyme = 100% inhibition; read-out: HDAC6 inhibitory rate (%) (10 μM).
T1 construct: transducing full length HDAC6 gene into Sf-9 insect cells; GST; purchased SignalChem; host or cells: Sf-9 insect cells
T1 sequence (Q9UBN7 1-1215): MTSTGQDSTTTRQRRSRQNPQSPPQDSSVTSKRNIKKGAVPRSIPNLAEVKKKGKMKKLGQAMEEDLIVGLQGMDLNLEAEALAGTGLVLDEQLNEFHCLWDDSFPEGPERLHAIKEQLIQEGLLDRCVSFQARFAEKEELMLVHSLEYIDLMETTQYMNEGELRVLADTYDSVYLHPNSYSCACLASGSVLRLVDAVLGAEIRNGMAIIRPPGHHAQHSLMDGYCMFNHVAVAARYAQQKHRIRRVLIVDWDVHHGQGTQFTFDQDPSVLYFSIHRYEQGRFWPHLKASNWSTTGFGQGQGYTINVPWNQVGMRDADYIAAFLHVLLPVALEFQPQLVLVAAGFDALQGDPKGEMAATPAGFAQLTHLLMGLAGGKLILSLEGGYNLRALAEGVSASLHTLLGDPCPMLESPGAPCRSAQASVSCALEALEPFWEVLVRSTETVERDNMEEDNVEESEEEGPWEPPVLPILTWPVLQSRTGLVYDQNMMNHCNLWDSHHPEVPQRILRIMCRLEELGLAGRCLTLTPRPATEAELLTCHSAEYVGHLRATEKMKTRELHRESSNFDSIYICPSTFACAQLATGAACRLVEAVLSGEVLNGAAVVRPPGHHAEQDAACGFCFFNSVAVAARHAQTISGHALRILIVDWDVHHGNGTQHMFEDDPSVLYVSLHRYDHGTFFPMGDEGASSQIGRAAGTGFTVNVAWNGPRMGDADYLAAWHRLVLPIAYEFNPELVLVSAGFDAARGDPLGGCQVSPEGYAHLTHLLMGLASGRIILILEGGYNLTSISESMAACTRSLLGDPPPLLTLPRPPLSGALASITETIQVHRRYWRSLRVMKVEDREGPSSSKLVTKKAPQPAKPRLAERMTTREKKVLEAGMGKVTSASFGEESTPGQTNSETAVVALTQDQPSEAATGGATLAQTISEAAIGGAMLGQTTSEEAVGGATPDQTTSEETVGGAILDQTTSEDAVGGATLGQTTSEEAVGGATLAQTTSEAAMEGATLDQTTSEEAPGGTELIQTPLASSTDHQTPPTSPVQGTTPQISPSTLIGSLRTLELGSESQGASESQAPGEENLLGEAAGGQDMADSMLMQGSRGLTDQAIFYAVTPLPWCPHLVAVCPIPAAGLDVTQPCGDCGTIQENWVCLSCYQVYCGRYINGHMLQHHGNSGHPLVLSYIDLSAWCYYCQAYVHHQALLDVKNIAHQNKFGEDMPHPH
Format: biochemical
In short: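 Full-length human HDAC6 (GST-purified, Sf-9 expressed) preincubated with compound 60 min at room temperature in Tris-HCl pH 7.5 buffer with MgCl2, KCl, NaCl, glutathione, Tween-20. HDAC-Glo I/II substrate-developer then added, 20 min room temperature, luminescence read. Inhibition relative to no-enzyme wells as 100%.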

SMILES	inhibition at 10 µM [%]
CC(F)(F)C(=O)N[C@H]1CCCC[C@H]1N1Cc2ccc(-c3nnc(C(F)F)o3)cc2C1=O [Example 258, N-((1S,2R)-2-(6-(5-(difluoro-methyl)-1,3,4-oxadiazol-2-yl)-1-oxo-1,3-dihydro-2H-isoindol-2-yl)cyclohexyl)-2,2-difluoro-propanamide]	101
O=C1c2cc(-c3nnc(C(F)F)o3)ccc2CN1[C@@H]1CCCC[C@@H]1NC(=O)C1(C(F)(F)F)CC1 [Example 259, N-((1S,2R)-2-(6-(5-(difluoro-methyl)-1,3,4-oxadiazol-2-yl)-1-oxo-1,3-dihydro-2H-isoindol-2-yl)cyclohexyl)-1-(trifluoromethyl)cyclopro-panecarboxamide]	101
CC(C)(C(=O)N[C@H]1CCCC[C@H]1N1Cc2ccc(-c3nnc(C(F)F)o3)cc2C1=O)C(F)(F)F [Example 260, N-((1S,2R)-2-(6-(5-(difluoro-methyl)-1,3,4-oxadiazol-2-yl)-1-oxo-1,3-dihydro-2H-isoindol-2-yl)cyclohexyl)-3,3,3-trifluoro-2,2-dimethyl-propanamide]	98
O=C1c2cc(-c3nnc(C(F)F)o3)ccc2CN1[C@@H]1CCCC[C@@H]1NC(=O)C(F)(F)C(F)(F)F [Example 261, N-((1S,2R)-2-(6-(5-(difluoro-methyl)-1,3,4-oxadiazol-2-yl)-1-oxo-1,3-dihydro-2H-isoindol-2-yl)cyclohexyl)-2,2,3,3,3-pentafluoropropan-amide]	99
COC(=O)N[C@H]1CCCC[C@H]1N1Cc2ccc(-c3nnc(C(F)F)o3)cc2C1=O [Example 262, methyl ((1S,2R)-2-(6-(5-(difluoromethyl)-1,3,4-oxadiazol-2-yl)-1-oxo-1,3-dihydro-2H-isoindol-2-yl)cyclohexyl)carbamate]	98
CC(C)(C)OC(=O)N1CCC[C@@H]1CN1Cc2c(F)cc(-c3nnc(C(F)F)o3)cc2C1=O [Example 263, tert-butyl (2R)-2-((6-(5-(difluoromethyl)-1,3,4-oxadiazol-2-yl)-4-fluoro-1-oxo-1,3-dihydro-2H-isoindol-2-yl)methyl)-pyrrolidine-1-carboxylate]	99
CC(=O)N(c1ccccn1)[C@@H]1CCCC[C@H]1N1Cc2ccc(-c3nnc(C(F)F)o3)cc2C1=O [Example 264, N-((1R,2R)-2-(6-(5-(difluoromethyl)-1,3,4-oxadiazol-2-yl)-1-oxo-1,3-dihydro-2H-isoindol-2-yl)cyclohexyl)-N-(pyridin-2-yl) acetamide]	101
O=C1c2cc(-c3nnc(C(F)F)o3)cc(F)c2CN1C[C@H]1COCCN1S(=O)(=O)c1cccc(F)c1 [Example 265, 6-(5-(difluoromethyl)-1,3,4-oxadiazol-2-yl)-4-fluoro-2-(((3S)-4-((3-fluorophenyl)-sulfonyl)morpholin-3-yl)-methyl)isoindolin-1-one]	98
COc1cccc(CN2Cc3ncc(-c4nnc(C(F)F)o4)cc3C2=O)c1 [Example 266, 3-(5-(difluoromethyl)-1,3,4-oxadiazol-2-yl)-6-(3-methoxybenzyl)-6,7-dihydro-5H-pyrrolo[3,4-b]-pyridin-5-one]	99
N#Cc1cccc(-c2ccc(Cl)cc2N2Cc3ccc(-c4nnc(C(F)F)o4)cc3C2=O)c1 [Example 267, 4′-chloro-2′-(6-(5-(difluoro-methyl)-1,3,4-oxadiazol-2-yl)-1-oxo-1,3-dihydro-2H-isoindol-2-yl)biphenyl-3-carbonitrile]	100
CC(C)(OC(=O)N[C@@H]1CCCC[C@H]1N1Cc2ncc(-c3nnc(C(F)F)o3)cc2C1=O)C(F)(F)F [Example 268, 1,1,1-trifluoro-2-methylpropan-2-yl ((1R,2R)-2-(3-(5-(difluoromethyl)-1,3,4-oxadiazol-2-yl)-5-oxo-5,7-dihydro-6H-pyrrolo[3,4-b]pyridin-6-yl)cyclohexyl)carbamate]	100
O=C1CCCN1CC(c1ccccc1)N1Cc2ncc(-c3nnc(C(F)F)o3)cc2C1=O (stereo not shown) [Example 269, 3-(5-(difluoromethyl)-1,3,4-oxadiazol-2-yl)-6-(2-(2-oxopyrrolidin-1-yl)-1-phenylethyl)-6,7-dihydro-5H-pyrrolo[3,4-b]pyridin-5-one]	99
Cn1cc(-c2cc(Cl)ccc2N2Cc3ccc(-c4nnc(C(F)F)o4)cc3C2=O)cn1 [Example 270, 2-(4-chloro-2-(1-methyl-1H-pyrazol-4-yl)phenyl)-6-(5-(difluoromethyl)-1,3,4-oxadiazol-2-yl)-isoindolin-1-one]	99
Cn1cc(-c2cc(F)ccc2N2Cc3ccc(-c4nnc(C(F)F)o4)cc3C2=O)cn1 [Example 271, 6-(5-(difluoromethyl)-1,3,4-oxadiazol-2-yl)-2-(4-fluoro-2-(1-methyl-1H-pyrazol-4-yl)phenyl)isoindolin-1-one]	100
COc1ccc(CN2Cc3ncc(-c4nnc(C(F)F)o4)cc3C2=O)c(OC)c1 [Example 272, 3-(5-(difluoromethyl)-1,3,4-oxadiazol-2-yl)-6-(2,4-dimethoxybenzyl)-6,7-dihydro-5H-pyrrolo-[3,4-b]pyridin-5-one]	100
O=C1c2cc(-c3nnc(C(F)F)o3)cnc2CN1Cc1cccc(F)c1 [Example 273, 3-(5-(difluoromethyl)-1,3,4-oxadiazol-2-yl)-6-(3-fluorobenzyl)-6,7-dihydro-5H-pyrrolo[3,4-b]pyridin-5-one]	97
O=C1c2cc(-c3nnc(C(F)F)o3)cc(F)c2CN1C[C@H]1CCCN1S(=O)(=O)C1CC1 [Example 274, 2-(((2R)-1-(cyclopropyl-sulfonyl)pyrrolidin-2-yl)methyl)-6-(5-(difluoro-methyl)-1,3,4-oxadiazol-2-yl)-4-fluoroisoindolin-1-one]	99
CC(C)(C)OC(=O)N1CCC[C@H]1CN1Cc2c(F)cc(-c3nnc(C(F)F)o3)cc2C1=O [Example 275, tert-butyl (2S)-2-((6-(5-(difluoromethyl)-1,3,4-oxadiazol-2-yl)-4-fluoro-1-oxo-1,3-dihydro-2H-isoindol-2-yl)methyl)-pyrrolidine-1-carboxylate]	98
O=C1c2cc(-c3nnc(C(F)F)o3)ccc2CN1c1ccccc1-c1ccc(F)cc1 [Example 276, 6-(5-(difluoromethyl)-1,3,4-oxadiazol-2-yl)-2-(4′-fluorobiphenyl-2-yl)-isoindolin-1-one]	98
O=C1c2cc(-c3nnc(C(F)F)o3)ccc2CN1c1ccccc1-c1ccccc1F [Example 277, 6-(5-(difluoromethyl)-1,3,4-oxadiazol-2-yl)-2-(2'-fluorobiphenyl-2-yl)isoindolin-1-one]	97
O=C1c2cc(-c3nnc(C(F)F)o3)ccc2CN1c1ccccc1-c1cccc(F)c1 [Example 278, 6-(5-(difluoromethyl)-1,3,4-oxadiazol-2-yl)-2-(3′-fluorobiphenyl-2-yl)-isoindolin-1-one]	99
N#Cc1ccc(-c2ccccc2N2Cc3ccc(-c4nnc(C(F)F)o4)cc3C2=O)cc1 [Example 279, 2′-(6-(5-(difluoromethyl)-1,3,4-oxadiazol-2-yl)-1-oxo-1,3-dihydro-2H-isoindol-2-yl)-biphenyl-4-carbonitrile]	89
CCc1ncccc1-c1ccccc1N1Cc2ccc(-c3nnc(C(F)F)o3)cc2C1=O [Example 280, 6-(5-(difluoromethyl)-1,3,4-oxadiazol-2-yl)-2-(2-(2-ethylpyridin-3-yl)phenyl)-isoindolin-1-one]	99
O=C1c2cc(-c3nnc(C(F)F)o3)ccc2CN1c1ccccc1-c1ccccc1Cl [Example 281, 2-(2′-chlorobiphenyl-2-yl)-6-(5-(difluoromethyl)-1,3,4-oxadiazol-2-yl)isoindolin-1-one]	98
O=C1c2cc(-c3nnc(C(F)F)o3)ccc2CN1c1ccccc1-c1ccc(Cl)cc1 [Example 282, 2-(4′-chlorobiphenyl-2-yl)-6-(5-(difluoromethyl)-1,3,4-oxadiazol-2-yl)isoindolin-1-one]	98
